pIC50: −log10 of the molar value.

In the assay the target is T1, glutathione S-transferase (GST)-fused full-length human Syk protein (Homo sapiens, UniProt P43405).
T1 construct: (GST)-fused full-length human Syk protein; GST (glutathione S-transferase); purchased Carna Biosciences
Briefly: Syk enzyme assay. In kind it is biochemical. As to conditions: Syk enzyme assay, Test Example 1; read-out: IC50 of Syk-inhibitory activity. A digest of the protocol: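 IC50 values come from a time-resolved FRET readout (615 and 665 nm) of substrate phosphorylation, measured after an EDTA stop and 1 h antibody binding. The kinase reaction ran 40 min at room temperature with 27 μM ATP and 0.4 μM biotin-peptide, following a 15 min compound preincubation with baculovirus-made GST-full-length human Syk.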
With `CCCc1nn(C2CC2)c2ccc(Nc3nc(N[C@H](CC4CC4)[C@H](C)N)c(F)cc3C(N)=O)cc12` [Example 006-482, 6-(((2R,3S)-3-amino-1-cyclopropylbutan-2-yl)amino)-2-((1-cyclopropyl-3-propyl-1H-indazol-5-yl)amino)-5-fluoronicotinamide], the pIC50 is more than 8.00.

With `COCCn1nc(F)c2c(Nc3nc(N[C@H](CC4CC4)[C@H](C)N)c(F)cc3C(N)=O)cccc21` [Example 006-490, 6-(((2R,3S)-3-amino-1-cyclopropylbutan-2-yl)amino)-5-fluoro-2-((3-fluoro-1-(2-methoxyethyl)-1H-indazol-4-yl)amino)nicotinamide], the pIC50 was 7.00 to 7.30.

On to `C[C@H](N)[C@@H](CC1CC1)Nc1nc(Nc2cccc3c2c(F)nn3CCF)c(C(N)=O)cc1F` [Example 006-491, 6-(((2R,3S)-3-amino-1-cyclopropylbutan-2-yl)amino)-5-fluoro-2-((3-fluoro-1-(2-fluoroethyl)-1H-indazol-4-yl)amino)nicotinamide], for which the pIC50 is 7.30 to 8.00.

Regarding `C[C@H](N)[C@@H](CC1CC1)Nc1nc(Nc2cccc3c2c(F)nn3CC(F)F)c(C(N)=O)cc1F` [Example 006-492, 6-(((2R,3S)-3-amino-1-cyclopropylbutan-2-yl)amino)-2-((1-(2,2-difluoroethyl)-3-fluoro-1H-indazol-4-yl)amino)-5-fluoronicotinamide], the pIC50 is 7.30 to 8.00.

For `NC(=O)c1cc(F)c(N[C@@H]2CCCC[C@@H]2N)nc1Nc1cnc(O)c(-n2nccn2)c1` [Example 006-504, 6-(((1R,2S)-2-aminocyclohexyl)amino)-5-fluoro-2-((6-hydroxy-5-(2H-1,2,3-triazol-2-yl)pyridin-3-yl)amino)nicotinamide], the pIC50 was 7.00 to 7.30.

For `C[C@H](N)[C@H](Nc1nc(Nc2cnc3c(c2)OCO3)c(C(N)=O)cc1F)C1CC1` [Example 006-514, 2-([1,3]dioxolo[4,5-b]pyridin-6-ylamino)-6-(((1R,2S)-2-amino-1-cyclopropylpropyl)amino)-5-fluoronicotinamide], the pIC50 was 7.00 to 7.30.

Turning to `COCCOc1ncc(Nc2nc(N[C@@H]3CCCC[C@@H]3N)c(F)cc2C(N)=O)cc1-n1ccnn1` [Example 006-518, 6-(((1R,2S)-2-aminocyclohexyl)amino)-5-fluoro-2-((6-(2-methoxyethoxy)-5-(1H-1,2,3-triazol-1-yl)pyridin-3-yl)amino)nicotinamide], the pIC50 was 7.00 to 7.30.

On to `NC(=O)c1cc(F)c(N[C@@H]2CCCC[C@@H]2N)nc1Nc1cnc(N2CCOCC2)c(-n2cccn2)c1` [Example 006-527, 6-(((1R,2S)-2-aminocyclohexyl)amino)-5-fluoro-2-((6-morpholino-5-(1H-pyrazol-1-yl)pyridin-3-yl)amino)nicotinamide], for which the pIC50 was 7.00 to 7.30.

Take `NC(=O)c1cc(F)c(N[C@@H]2CCCC[C@@H]2N)nc1Nc1cnc(N2CCOCC2)c(C2CC2)c1` [Example 006-528, 6-(((1R,2S)-2-aminocyclohexyl)amino)-2-((5-cyclopropyl-6-morpholinopyridin-3-yl)amino)-5-fluoronicotinamide]: the pIC50 was 7.30 to 8.00.

In the case of `COc1cc(Nc2nc(NC3CN(C(=O)OCc4ccccc4)CCC3N)c(F)cc2C(N)=O)ccn1` [Example 006-529, (3R,4S)-benzyl 4-amino-3-((5-carbamoyl-3-fluoro-6-((2-methoxypyridin-4-yl)amino)pyridin-2-yl)amino)piperidine-1-carboxylate) and (3S,4R)-benzyl-4-amino-3-((5-carbamoyl-3-fluoro-6-((2-methoxypyridin-4-yl)amino)pyridin-2-yl)amino)piperidine-1-carboxylate(=1:1)], the pIC50 was 6.00 to 7.00.

Take `COc1cc(Nc2nc(NC3CCN(C(=O)OCc4ccccc4)CC3N)c(F)cc2C(N)=O)ccn1` [Example 006-530, (3S,4R)-benzyl 3-amino-4-((5-carbamoyl-3-fluoro-6-((2-methoxypyridin-4-yl)amino)pyridin-2-yl)amino)piperidine-1-carboylate and (3R,4S)-benzyl 3-amino-4-((5-carbamoyl-3-fluoro-6-((2-methoxypyridin-4-yl)amino)pyridin-2-yl)amino)piperidine-1-carboxylate(=1:1)]: the pIC50 was more than 8.00.

For `COc1cc(Nc2nc(N[C@@H]3COCC[C@@H]3N)c(F)cc2C(N)=O)ccn1` [Example 006-532, 6-(((3S,4S)-4-aminotrahydro-2H-pyran-3-yl)amino)-5-fluoro-2-((2-methoxypyridin-4-yl)amino)nicotinamide], the pIC50 is 6.00 to 7.00.

As to `NC(=O)c1cc(F)c(N[C@@H]2CCCC[C@@H]2N)nc1Nc1cnc(N2CCOCC2)c(-n2nccn2)c1` [Example 006-533, 6-(((1R,2S)-2-aminocyclohexyl)amino)-5-fluoro-2-((6-morpholino-5-(2H-1,2,3-triazol-2-yl)pyridin-3-yl)amino)nicotinamide], the pIC50 was 7.30 to 8.00.

On to `NC(=O)c1cc(F)c(N[C@@H]2CCCC[C@@H]2N)nc1Nc1cnc(N2CCOCC2)c(-n2ccnn2)c1` [Example 006-534, 6-(((1R,2S)-2-aminocyclohexyl)amino)-5-fluoro-2-((6-morpholino-5-(1H-1,2,3-triazol-1-yl)pyridin-3-yl)amino)nicotinamide], for which the pIC50 was 6.00 to 7.00.

As for `NC(=O)c1cc(F)c(N[C@@H]2CCCC[C@@H]2N)nc1Nc1ccc(-n2ccnc2)nc1` [Example 006-535, 2-((6-(1H-imidazole-1-yl)pyridin-3-yl)amino)-6-(((1R,2S)-2-aminocyclohexyl)amino)-5-fluoronicotinamide], the negative-log IC50 (pIC50) was 7.00 to 7.30.

For `Cc1nccn1-c1ccc(Nc2nc(N[C@@H]3CCCC[C@@H]3N)c(F)cc2C(N)=O)cn1` [Example 006-536, 6-(((1R,2S)-2-aminocyclohexyl)amino)-5-fluoro-2-((6-(2-methyl-1H-imidazol-1-yl)pyridin-3-yl)amino)nicotinamide], the pIC50 is 6.00 to 7.00.

Turning to `CCc1nn(C)c2ccc(Nc3nc(N[C@H](CC(C)C)[C@H](C)N)c(F)cc3C(N)=O)cc12` [Example 006-538, 6-(((2S,3R)-2-amino-5-methylhexan-3-yl)amino)-2-((3-ethyl-1-methyl-1H-indazol-5-yl)amino)-5-fluoronicotinamide], the pIC50 is more than 8.00.

As for `CCc1nn(CC)c2ccc(Nc3nc(N[C@H](CC(C)C)[C@H](C)N)c(F)cc3C(N)=O)cc12` [Example 006-540, 6-(((2S,3R)-2-amino-5-methylhexan-3-yl)amino)-2-((1,3-diethyl-1H-indazol-5-yl)amino)-5-fluoronicotinamide], the pIC50 was more than 8.00.

`CC(C)C[C@@H](Nc1nc(Nc2ccc3c(c2)c(C(C)C)nn3C)c(C(N)=O)cc1F)[C@H](C)N` [Example 006-542, 6-(((2S,3R)-2-amino-5-methylhexan-3-yl)amino)-5-fluoro-2-((3-isopropyl-1-methyl-1H-indazol-5-yl)amino)nicotinamide]: the pIC50 was more than 8.00.

With `CCn1nc(C2CC2)c2cc(Nc3nc(N[C@H](CC4CC4)[C@H](C)N)c(F)cc3C(N)=O)ccc21` [Example 006-549, 6-(((2R,3S)-3-amino-1-cyclopropylbutan-2-yl)amino)-2-((3-cyclopropyl-1-ethyl-1H-indazol-5-yl)amino)-5-fluoronicotinamide], the pIC50 is more than 8.00.

These data come from patent publication US8895585B2, “Nicotinamide derivative or salt thereof” (FUJIFILM Corporation, priority 2010, dated 2014).
